The results in this text go back to patent US10617695B2, “Ophthalmic compositions containing alcaftadine” (Vistakon Pharmaceuticals, LLC, priority 2006, dated 2020).

For data set [1], the target named is T1, human histamine H4 receptor (Homo sapiens, UniProt Q9H3N8).
T1 construct: express a reporter gene construct and the human H4 receptor full-coding region; expressed in transfected cells; host or cells: SK-N-MC cells with a CRE-beta-galactosidase reporter
The data set can be described thus: [3H]histamine competition binding to membranes of SK-N-MC cells transfected with human H4 receptor. As to conditions: average of two runs; 10 nM [3H]histamine; Cheng and Prusoff.

In data set [2] the target is T1, human histamine H4 receptor. Description: H4 receptor agonist assay: inhibition of forskolin-induced cAMP (reporter gene) in transfected SK-N-MC cells. The class given is cell-based. As for the experimental part:
(§1) Alcaftadine and 6,11-dihydro-11-(1-methyl-4-piperdinylidene)-5H-imidazo[2,1-b][3]benazepine-3-carboxylic acid (CAS #147083-93-0) were prepared at 10 mM in 100% dimethylsulfoxide (DMSO) for the binding assays and at 10 mM in Na/K phosphate buffer, pH 7.0, for the cellular assays. Cell pellets from SK-N-MC cells transfected with human H4 receptor were homogenized in 20 mM Tris-HCl/0.5 mM ethylendediaminetetraacetic acid (EDTA) pH 8.0 (TE buffer). Supernatants collected after centrifugation at 800 g were recentrifuged at 30,000 g for 30 min. Pellets were re-homogenized in TE buffer. […] Non-specific binding was defined with 100 μM cold histamine. […] Seven concentrations of compound were tested spanning 10^−11 to 10^−5 M with each concentration being run in triplicate. […] This assay was run twice and the results are reported as the average of the two runs. SK-N-MC cell lines were created that express a reporter gene construct and the human H4 receptor full-coding region. […] Color was quantitated on a microplate reader at absorbance 570 nm. […]
To test whether alcaftadine or 6,11-dihydro-11-(1-methyl-4-piperdinylidene)-5H-imidazo[2,1-b][3]benazepine-3-carboxylic acid (CAS #147083-93-0) were H4 receptor agonists, functional assays were carried out in SK-N-MC cells transfected with the human histamine H4 receptor. The ability of the compounds to inhibit forskolin-induced cAMP increases was assessed.
In general terms: In a reporter assay the amount or activity of a reporter protein is the signal.

Data set [3] relates to RBL-CCR1 (Rat Basophil Leukemia-Chemokine Receptor-1) cell line. Description: Mast cell degranulation / cell stabilization in RBL-CCR1 cells. The class given is cell-based. How it is done: The cell stabilization potential of alcaftadine was evaluated using the RBL-CCR1 (Rat Basophil Leukemia-Chemokine Receptor-1) cell line as a way of investigating its ability to effect mast cell stabilization. The use of basophil cell lines to assess anti-allergic drugs for cell stabilization potential is well established. Physiologically, basophils are similar to mast cells, containing pre-formed inflammatory mediators that are released through a similar degranulation process involving IgE cross-linking. Because these cell lines are readily available, they present efficiencies over conducting stabilization assays in mast cell lines.
Cultured RBL-CCR1 cells were sensitized to anti-DNP IgE. Following sensitization, cells were treated with various concentrations of alcaftadine or its major active metabolite (0.083%, 0.0083% and 0.00083%) or ophthalmic vehicle (placebo), and stimulated with DNP and/or MIP-1a (Macrophage Inflammatory Protein-1 alpha, a degranulation enhancer) to induce degranulation. A 10× and 100× placebo control solution (ophthalmic vehicle solution) in D-DEM (Dulbecco's modified Eagle's medium) was also employed.
However, co-stimulation induced a robust degranulation response.

Data set [4] can be described thus: Systemic (plasma) levels of the carboxylic acid in patients. The class given is in vivo, human. As to conditions: for Cmax: plasma, other: ophthalmic solution, bilateral instillation, 0.25 % ophthalmic solution, 0.25% ophthalmic solution bilaterally. As for the experimental part:
Patients were bilaterally dosed with 0.25% ophthalmic solutions of 6,11-dihydro-11-(1-methyl-4-piperdinylidene)-5H-imidazo[2,1-b][3]benazepine-3-carboxylic acid for seven days. The plasma levels of those patients was assessed pre-dose, and 0.25, 0.5, 1, 1.5, 2, 3, 4, 6, 8, 12, and 18 hour post medication instillation on days one and seven.

In data set [5] the target is T1, human histamine H4 receptor. Description: H4 receptor antagonist assay: shift of histamine EC50, Schild plot, in transfected SK-N-MC cells. The class given is cell-based. As for the experimental part: as §1, with “region. The reporter gene was β-galactosidase under the control of cyclic adenosine monophosphate (cAMP) responsive elements. Cells were plated in 96-well plates the night before the assay. Antagonists were added 10 min prior to the addition of histamine, which was added directly to the cell medium. Forskolin (5 μM final concentration) was added 10 min after the addition of histamine. Cells were returned to the incubator for 6 h at 37° C. The medium was then aspirated and cells were lysed with 25 μL of 0.1× assay buffer (10 mM sodium phosphate, pH 8, 0.2 mM MgSO4, 0.01 mM MnCl2) and incubated at room temperature for 10 min.” for “region.”
To test whether alcaftadine or 6,11-dihydro-11-(1-methyl-4-piperdinylidene)-5H-imidazo[2,1-b][3]benazepine-3-carboxylic acid (CAS #147083-93-0) were antagonists of the H4 receptor, the ability of the compounds shift the EC50 of the histamine inhibition of forskolin-induced cAMP increases was assessed in SK-N-MC cells transfected with the human histamine H4 receptor. […]

pEC50, pKi: −log10 of the molar value. Bounds are passed on as bounds.

T1 sequence (Q9H3N8 whole entry): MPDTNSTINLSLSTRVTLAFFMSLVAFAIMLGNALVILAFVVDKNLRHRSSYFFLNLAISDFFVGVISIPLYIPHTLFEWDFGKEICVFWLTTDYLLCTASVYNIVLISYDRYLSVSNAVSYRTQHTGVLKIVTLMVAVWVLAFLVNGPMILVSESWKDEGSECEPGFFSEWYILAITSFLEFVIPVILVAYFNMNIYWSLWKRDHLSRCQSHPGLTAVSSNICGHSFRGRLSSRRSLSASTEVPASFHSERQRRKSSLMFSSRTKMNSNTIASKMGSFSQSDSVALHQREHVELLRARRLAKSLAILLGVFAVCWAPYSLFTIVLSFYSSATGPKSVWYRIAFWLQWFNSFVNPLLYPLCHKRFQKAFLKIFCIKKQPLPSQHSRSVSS

In turn, `CN1CCC(=C2c3ccccc3CCn3c(C(=O)O)cnc32)CC1` [6,11-dihydro-11-(1-methyl-4-piperdinylidene)-5H-imidazo[2,1-b][3]benazepine-3-carboxylic acid] showed a pKi in data set [1] below 5.00. The pEC50 in data set [2] (absence of histamine, read-out: agonist activity: inhibition of forskolin-induced cAMP levels (highest concentration without agonism)) is below 4.00. Besides, the overall membrane stabilization result in data set [3] is given as “effective membrane stabilizing agents”. Moreover, the “stabilization effect added to that of placebo” value in data set [3] (10× dose level) is reported as “enhanced the stabilization effect”. Besides, the “degranulation at the highest concentration” value in data set [3] ([…], DNP-HSA alone, MIP-1a alone, and co-stimulation) was “unanticipated and significant degranulation”. Further, the “cell stabilization compared to co-stimulation control and negative controls (placebo 10× and placebo 100×)” value in data set [3] (co-stimulation assay, concentrations of […] and […], p<0.0001 for both concentrations) was “superior at cell stabilization”. In addition, the maximum plasma concentrations in data set [4] (human, in vivo) was 7.23 ng/mL. Also, the peak concentration (Cmax) is 3.23 ng/mL in data set [4] (human, Day 1) and 2.71 ng/mL in data set [4] (human, Day 7). Moreover, the “time by which plasma concentrations declined to below the lower limit of quantification” value in data set [4] (post dosing, lower limit of quantification 0.1 ng/mL) was at most 12 h. The “antagonist activity: shift of histamine EC50 (highest concentration without shift)” value in data set [5] is above 100 µM.

As for `NCCc1c[nH]cn1` [histamine, reference compound], the “agonist activity: inhibition of forskolin-induced cAMP levels” value in data set [2] is reported as “agonist”.

In general, pKi refers to the negative decadic logarithm of the Ki, by convention in mol/L. Lower therefore signals a high Ki. By Cmax is commonly meant the maximum level reached in the sampled fluid or tissue.
